Values quoted from earlier work in patent US10021900B2, “Carbohydrate composition and food and beverage producing gradual rise in blood glucose levels” (MATSUTANI CHEMICAL INDUSTRY CO., LTD., priority 2011, dated 2018).

Conditions: 10% by mass aqueous solution

- osmotic pressure: about 340 mOSMOL/kg
Structure (SMILES): OC[C@H]1O[C@H](OC[C@H]2OC(O)(CO)[C@@H](O)[C@@H]2O)[C@H](O)[C@@H](O)[C@@H]1O (stereo partly shown) [isomaltulose]
